{"source": "patent US10508089B2", "about": "“Use of N-(1,3,4-Oxadiazol-2-yl)arylcarboxamides or their salts for controlling unwanted plants in areas of transgenic crop plants being tolerant to HPPD inhibitor herbicides” (BASF SE, priority 2014, dated 2019)", "format_in_all_cases": "in vivo", "key": {"[1]": {"system": "T2 soybean events expressing PfHPPD-W336 (PfHPPD-G336W)", "settings": "14 days after treatment"}, "[2]": {"system": "T2 soybean events expressing PfHPPD-Evo40", "settings": "14 days after treatment"}, "wild type soybean Thorne": {"system": "wild type soybean Thorne", "settings": "14 days after treatment, total 4"}, "[3]": {"system": "T2 soybean events expressing PfHPPD-Evo41", "settings": "14 days after treatment"}}, "note": "Where two headings read alike, the source gives them in different places.", "data": [{"smiles": "Cc1nnc(NC(=O)c2ccc(C(F)(F)F)c(S(C)(=O)=O)c2C)o1", "note": "[Compound 2-145]", "values": [{"measurement": "Number of plants categorized herbicide tolerance “0” (marginal; 41%-100% damaged leaf area)", "setting": "[1]; 25 g Al/ha, total 16", "value": 0}, {"measurement": "Number of plants categorized herbicide tolerance “1” (moderate; 26%-40% damaged leaf area)", "setting": "[1]; 25 g Al/ha, total 16", "value": 2}, {"measurement": "Number of plants categorized herbicide tolerance “2” (good; 16%-25% damaged leaf area)", "setting": "[1]; 25 g Al/ha, total 16", "value": 3}, {"measurement": "Number of plants categorized herbicide tolerance “3” (high; less than or equal to 15% damaged leaf area)", "setting": "[1]; 25 g Al/ha, total 16", "value": 11}, {"measurement": "Number of plants categorized herbicide tolerance “0” (marginal; 41%-100% damaged leaf area)", "setting": "[1]; 50 g Al/ha, total 4", "value": 0}, {"measurement": "Number of plants categorized herbicide tolerance “1” (moderate; 26%-40% damaged leaf area)", "setting": "[1]; 50 g Al/ha, total 4", "value": 0}, {"measurement": "Number of plants categorized herbicide tolerance “2” (good; 16%-25% damaged leaf area)", "setting": "[1]; 50 g Al/ha, total 4", "value": 1}, {"measurement": "Number of plants categorized herbicide tolerance “3” (high; less than or equal to 15% damaged leaf area)", "setting": "[1]; 50 g Al/ha, total 4", "value": 3}, {"measurement": "Number of plants categorized herbicide tolerance “0” (marginal; 41%-100% damaged leaf area)", "setting": "[1]; 75 g Al/ha, total 4", "value": 0}, {"measurement": "Number of plants categorized herbicide tolerance “1” (moderate; 26%-40% damaged leaf area)", "setting": "[1]; 75 g Al/ha, total 4", "value": 1}, {"measurement": "Number of plants categorized herbicide tolerance “2” (good; 16%-25% damaged leaf area)", "setting": "[1]; 75 g Al/ha, total 4", "value": 0}, {"measurement": "Number of plants categorized herbicide tolerance “3” (high; less than or equal to 15% damaged leaf area)", "setting": "[1]; 75 g Al/ha, total 4", "value": 3}, {"measurement": "Number of plants categorized herbicide tolerance “0” (marginal; 41%-100% damaged leaf area)", "setting": "[2]; 6.25 g Al/ha, total 8", "value": 0}, {"measurement": "Number of plants categorized herbicide tolerance “1” (moderate; 26%-40% damaged leaf area)", "setting": "[2]; 6.25 g Al/ha, total 8", "value": 0}, {"measurement": "Number of plants categorized herbicide tolerance “2” (good; 16%-25% damaged leaf area)", "setting": "[2]; 6.25 g Al/ha, total 8", "value": 0}, {"measurement": "Number of plants categorized herbicide tolerance “3” (high; less than or equal to 15% damaged leaf area)", "setting": "[2]; 6.25 g Al/ha, total 8", "value": 8}, {"measurement": "Number of plants categorized herbicide tolerance “0” (marginal; 41%-100% damaged leaf area)", "setting": "[2]; 25 g Al/ha, total 12", "value": 0}, {"measurement": "Number of plants categorized herbicide tolerance “1” (moderate; 26%-40% damaged leaf area)", "setting": "[2]; 25 g Al/ha, total 12", "value": 0}, {"measurement": "Number of plants categorized herbicide tolerance “2” (good; 16%-25% damaged leaf area)", "setting": "[2]; 25 g Al/ha, total 12", "value": 0}, {"measurement": "Number of plants categorized herbicide tolerance “3” (high; less than or equal to 15% damaged leaf area)", "setting": "[2]; 25 g Al/ha, total 12", "value": 12}, {"measurement": "Number of plants categorized herbicide tolerance “0” (marginal; 41%-100% damaged leaf area)", "setting": "[2]; 50 g Al/ha, total 4", "value": 0}, {"measurement": "Number of plants categorized herbicide tolerance “1” (moderate; 26%-40% damaged leaf area)", "setting": "[2]; 50 g Al/ha, total 4", "value": 0}, {"measurement": "Number of plants categorized herbicide tolerance “2” (good; 16%-25% damaged leaf area)", "setting": "[2]; 50 g Al/ha, total 4", "value": 0}, {"measurement": "Number of plants categorized herbicide tolerance “3” (high; less than or equal to 15% damaged leaf area)", "setting": "[2]; 50 g Al/ha, total 4", "value": 4}, {"measurement": "Number of plants categorized herbicide tolerance “0” (marginal; 41%-100% damaged leaf area)", "setting": "[2]; 75 g Al/ha, total 4", "value": 0}, {"measurement": "Number of plants categorized herbicide tolerance “1” (moderate; 26%-40% damaged leaf area)", "setting": "[2]; 75 g Al/ha, total 4", "value": 0}, {"measurement": "Number of plants categorized herbicide tolerance “2” (good; 16%-25% damaged leaf area)", "setting": "[2]; 75 g Al/ha, total 4", "value": 0}, {"measurement": "Number of plants categorized herbicide tolerance “3” (high; less than or equal to 15% damaged leaf area)", "setting": "[2]; 75 g Al/ha, total 4", "value": 4}, {"measurement": "Number of plants categorized herbicide tolerance “0” (marginal; 41%-100% damaged leaf area)", "setting": "wild type soybean Thorne; Thorne (wt), 6.25 g Al/ha", "value": 4}, {"measurement": "Number of plants categorized herbicide tolerance “1” (moderate; 26%-40% damaged leaf area)", "setting": "wild type soybean Thorne; Thorne (wt), 6.25 g Al/ha", "value": 0}, {"measurement": "Number of plants categorized herbicide tolerance “2” (good; 16%-25% damaged leaf area)", "setting": "wild type soybean Thorne; Thorne (wt), 6.25 g Al/ha", "value": 0}, {"measurement": "Number of plants categorized herbicide tolerance “3” (high; less than or equal to 15% damaged leaf area)", "setting": "wild type soybean Thorne; Thorne (wt), 6.25 g Al/ha", "value": 0}, {"measurement": "Number of plants categorized herbicide tolerance “0” (marginal; 41%-100% damaged leaf area)", "setting": "wild type soybean Thorne; Thorne, 25 g Al/ha", "value": 4}, {"measurement": "Number of plants categorized herbicide tolerance “1” (moderate; 26%-40% damaged leaf area)", "setting": "wild type soybean Thorne; Thorne, 25 g Al/ha", "value": 0}, {"measurement": "Number of plants categorized herbicide tolerance “2” (good; 16%-25% damaged leaf area)", "setting": "wild type soybean Thorne; Thorne, 25 g Al/ha", "value": 0}, {"measurement": "Number of plants categorized herbicide tolerance “3” (high; less than or equal to 15% damaged leaf area)", "setting": "wild type soybean Thorne; Thorne, 25 g Al/ha", "value": 0}, {"measurement": "Number of plants categorized herbicide tolerance “0” (marginal; 41%-100% damaged leaf area)", "setting": "[3]; 6.25 g Al/ha, total 12", "value": 0}, {"measurement": "Number of plants categorized herbicide tolerance “1” (moderate; 26%-40% damaged leaf area)", "setting": "[3]; 6.25 g Al/ha, total 12", "value": 1}, {"measurement": "Number of plants categorized herbicide tolerance “2” (good; 16%-25% damaged leaf area)", "setting": "[3]; 6.25 g Al/ha, total 12", "value": 0}, {"measurement": "Number of plants categorized herbicide tolerance “3” (high; less than or equal to 15% damaged leaf area)", "setting": "[3]; 6.25 g Al/ha, total 12", "value": 11}, {"measurement": "Number of plants categorized herbicide tolerance “0” (marginal; 41%-100% damaged leaf area)", "setting": "[3]; 25 g Al/ha, total 16", "value": 0}, {"measurement": "Number of plants categorized herbicide tolerance “1” (moderate; 26%-40% damaged leaf area)", "setting": "[3]; 25 g Al/ha, total 16", "value": 0}, {"measurement": "Number of plants categorized herbicide tolerance “2” (good; 16%-25% damaged leaf area)", "setting": "[3]; 25 g Al/ha, total 16", "value": 0}, {"measurement": "Number of plants categorized herbicide tolerance “3” (high; less than or equal to 15% damaged leaf area)", "setting": "[3]; 25 g Al/ha, total 16", "value": 16}, {"measurement": "Number of plants categorized herbicide tolerance “0” (marginal; 41%-100% damaged leaf area)", "setting": "[3]; 50 g Al/ha, total 4", "value": 0}, {"measurement": "Number of plants categorized herbicide tolerance “1” (moderate; 26%-40% damaged leaf area)", "setting": "[3]; 50 g Al/ha, total 4", "value": 0}, {"measurement": "Number of plants categorized herbicide tolerance “2” (good; 16%-25% damaged leaf area)", "setting": "[3]; 50 g Al/ha, total 4", "value": 2}, {"measurement": "Number of plants categorized herbicide tolerance “3” (high; less than or equal to 15% damaged leaf area)", "setting": "[3]; 50 g Al/ha, total 4", "value": 2}, {"measurement": "Number of plants categorized herbicide tolerance “0” (marginal; 41%-100% damaged leaf area)", "setting": "[3]; 75 g Al/ha, total 4", "value": 0}, {"measurement": "Number of plants categorized herbicide tolerance “1” (moderate; 26%-40% damaged leaf area)", "setting": "[3]; 75 g Al/ha, total 4", "value": 0}, {"measurement": "Number of plants categorized herbicide tolerance “2” (good; 16%-25% damaged leaf area)", "setting": "[3]; 75 g Al/ha, total 4", "value": 0}, {"measurement": "Number of plants categorized herbicide tolerance “3” (high; less than or equal to 15% damaged leaf area)", "setting": "[3]; 75 g Al/ha, total 4", "value": 4}]}]}
